“And” between values parts separate entries of the source, which are not always exact repeats. Identical values can stand only once.
Legend:
[1] = 101 kPa, Liquid
[2] = refractive index (Na D-line) (dimensionless); settings: 298.15 K; 101.33 kPa; Liquid
[3] = xn = mol fraction of the nth substance listed; settings: 101 kPa, Liquid
[4] = refractive index (Na D-line) (dimensionless); xn = mol fraction of the nth substance listed; settings: 298.15 K, 101 kPa, Liquid

CCOS(=O)(=O)[O-].CCn1cc[n+](C)c1 [1-ethyl-3-methylimidazolium ethyl sulfate]
[1]
Settings | mass density [kg/m3] | speed of sound | viscosity [mPa·s]
298.15 K | 1237.6 | 1679 m/s | 97.58
313.15 K | 1227.5 | 1641 m/s and 1642 m/s and 1643 m/s | 50.01
328.15 K | 1217.5 | 1605 m/s | 29.18

Settings | refractive index
[2] | 1.4794

CCOS(=O)(=O)[O-].CCn1cc[n+](C)c1 [1-ethyl-3-methylimidazolium ethyl sulfate] + CC(C)O
[3]
Settings | mass density, 298.15 K [kg/m3] | mass density, 313.15 K [kg/m3] | mass density, 328.15 K [kg/m3] | speed of sound, 298.15 K [m/s] | speed of sound, 313.15 K [m/s] | speed of sound, 328.15 K [m/s] | viscosity, 298.15 K [mPa·s] | viscosity, 313.15 K [mPa·s] | viscosity, 328.15 K [mPa·s]
x2 = 0 | 1237.6 | 1227.5 | 1217.5 | 1679 | 1643 | 1605 | 97.58 | 50.01 | 29.18
x2 = 0.1228 | 1214.3 | 1204.4 | 1194.5 | 1644 | 1608 | 1569 | 69.71 | 37.79 | 22.97
x2 = 0.2066 | 1196.4 | 1186.4 | 1176.3 | 1611 | 1576 | 1537 | 53.67 | 30.34 | 18.93
x2 = 0.309 | 1170.9 | 1160.9 | 1150.7 | 1570 | 1534 | 1494 | 40.1 | 23.56 | 15.2
x2 = 0.399 | 1144.9 | 1134.7 | 1124.3 | 1529 | 1491 | 1451 | 29.79 | 18.23 | 12.1
x2 = 0.4977 | 1111.8 | 1101.3 | 1090.7 | 1475 | 1439 | 1399 | 21.14 | 13.41 | 9.184
x2 = 0.6341 | 1054.2 | 1043.5 | 1032.6 | 1399 | 1360 | 1318 | 12.4 | 8.274 | 5.878
x2 = 0.7223 | 1008.5 | 997.4 | 986.2 | 1342 | 1302 | 1259 | 8.462 | 5.753 | 4.15
x2 = 0.8551 | 920.2 | 908.6 | 896.6 | 1251 | 1207 | 1161 | 4.475 | 3.081 | 2.225
x2 = 0.9706 | 814.1 | 801.7 | 788.5 | 1164 | 1113 | 1063 | 2.499 | 1.658 | 1.147

[4]
Settings | refractive index
x2 = 0 | 1.4794
x2 = 0.1228 | 1.47434
x2 = 0.2066 | 1.47057
x2 = 0.309 | 1.46502
x2 = 0.399 | 1.45926
x2 = 0.4977 | 1.45177
x2 = 0.6341 | 1.43881
x2 = 0.7223 | 1.42818
x2 = 0.8551 | 1.40784
x2 = 0.9706 | 1.38306

CCOS(=O)(=O)[O-].CCn1cc[n+](C)c1 [1-ethyl-3-methylimidazolium ethyl sulfate] + CCCO
[3]
Settings | mass density, 298.15 K [kg/m3] | mass density, 313.15 K [kg/m3] | mass density, 328.15 K [kg/m3] | speed of sound, 298.15 K [m/s] | speed of sound, 313.15 K [m/s] | speed of sound, 328.15 K [m/s] | viscosity, 298.15 K [mPa·s] | viscosity, 313.15 K [mPa·s] | viscosity, 328.15 K [mPa·s]
x2 = 0 | 1237.6 | 1227.5 | 1217.5 | 1679 | 1642 | 1605 | 97.58 | 50.01 | 29.18
x2 = 0.1619 | 1208.1 | 1197.9 | 1187.6 | 1637 | 1600 | 1565 | 60.85 | 33.73 | 20.84
x2 = 0.2104 | 1197.9 | 1187.6 | 1177.3 | 1620 | 1584 | 1548 | 52.11 | 29.56 | 18.59
x2 = 0.336 | 1167.4 | 1157.1 | 1146.7 | 1574 | 1537 | 1501 | 34.41 | 20.72 | 13.61
x2 = 0.5159 | 1111.6 | 1100.8 | 1090.2 | 1492 | 1456 | 1419 | 18.01 | 11.73 | 8.159
x2 = 0.7298 | 1015.5 | 1004.4 | 993.2 | 1382 | 1340 | 1300 | 7.296 | 5.125 | 3.774
x2 = 0.8046 | 970 | 958.6 | 947.2 | 1337 | 1294 | 1252 | 5.491 | 3.918 | 2.918
x2 = 0.8894 | 907.7 | 895.9 | 884 | 1284 | 1238 | 1193 | 3.577 | 2.58 | 1.923
x2 = 0.9401 | 862.5 | 850.6 | 838.5 | 1249 | 1201 | 1154 | 2.776 | 1.997 | 1.482
x2 = 0.9727 | 829.8 | 817.8 | 805.5 | 1227 | 1178 | 1130 | 2.419 | 1.729 | 1.272

[4]
Settings | refractive index
x2 = 0 | 1.4794
x2 = 0.1619 | 1.47317
x2 = 0.2104 | 1.47102
x2 = 0.336 | 1.46449
x2 = 0.5159 | 1.4524
x2 = 0.7298 | 1.43139
x2 = 0.8046 | 1.42139
x2 = 0.8894 | 1.40743
x2 = 0.9401 | 1.39739
x2 = 0.9727 | 1.39003
